Source: patent US12084472B2 (Ardelyx, Inc., priority 2015, dated 2024)

Molecular target: T1, human TGR5 (Homo sapiens, UniProt Q8TDU6)
T1 construct: expressed in transfected cells; host or cells: HEK293
T1 sequence (Q8TDU6 1-330): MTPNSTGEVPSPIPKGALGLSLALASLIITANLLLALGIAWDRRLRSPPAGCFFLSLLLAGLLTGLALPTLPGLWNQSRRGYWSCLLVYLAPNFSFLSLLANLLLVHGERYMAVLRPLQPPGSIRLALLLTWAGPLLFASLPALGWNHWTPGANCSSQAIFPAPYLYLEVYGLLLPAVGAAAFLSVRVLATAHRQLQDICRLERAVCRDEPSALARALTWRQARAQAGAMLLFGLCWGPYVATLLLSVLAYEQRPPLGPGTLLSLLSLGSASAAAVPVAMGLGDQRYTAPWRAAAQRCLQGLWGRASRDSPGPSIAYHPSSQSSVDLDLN
Experiment: Cell-based TGR5 assay (cAMP generation, HTRF)
Settings: HEK293 cells stably transfected with human TGR5; cAMP by HTRF; 30 minutes at 37° C.; read-out: pEC50 Human TGR5 (converted)
In short: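 First, compounds in 3-fold serial dilution were placed in HBSS with 10 mM HEPES pH 7.4 and 0.5 mM IBMX. Next, human TGR5-expressing HEK293 cells were added and incubated 30 min at 37° C. Finally, cAMP was detected by HTRF and pEC50 derived by logistic fitting.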

**Q.** How did the EC50 turn out when CN(CCCCCSc1ccc(Cl)c(COC2(c3cnccc3-c3ccccc3OC3CC3)CC2)c1)C(=O)[C@@H](O)[C@@H](O)[C@H](O)[C@@H](O)CO [Compound I-509, (2S,3S,4R,5S)-N-(5-{[4-chloro-3-({1-[4-(2-cyclopropoxyphenyl)pyridin-3-yl]cyclopropoxy}methyl)phenyl]sulfanyl}pentyl)-2,3,4,5,6-pentahydroxy-N-methylhexanamide] was run?
**A.** < 100 nM

**Q.** CC(CCCN(CCS(C)(=O)=O)C(=O)[C@@H](O)[C@@H](O)[C@H](O)[C@@H](O)CO)c1ccc(Cl)c(CNC2(c3cnccc3-c3ccccc3OC3CC3)CC2)c1 (stereo partly drawn) [Compound I-289, (2S,3S,4R,5S)-N-(4-{4-chloro-3-[({1-[4-(2-cyclopropoxyphenyl)pyridin-3-yl]cyclopropyl}amino)methyl]phenyl}pentyl)-2,3,4,5,6-pentahydroxy-N-(2-methanesulfonylethyl)hexanamide] was tested. Which EC50 did it give?
**A.** < 100 nM

**Q.** How did the EC50 turn out when C[C@H](O)CN(CCCCc1cc(Cl)c(COC2(c3cnccc3-c3ccccc3OC3CC3)CC2)cc1Cl)C(=O)[C@@H](O)[C@@H](O)[C@H](O)[C@@H](O)CO [Compound I-215, (2S,3S,4R,5S)-N-{4-[2,5-dichloro-4-({1-[4-(2-cyclopropoxyphenyl)pyridin-3-yl]cyclopropoxy}methyl)phenyl]butyl}-2,3,4,5,6-pentahydroxy-N-[(2S)-2-hydroxypropyl]hexanamide] was run?
**A.** < 100 nM

**Q.** Which EC50 does the source give for C[C@H](CCCC(=O)NC[C@H](O)[C@@H](O)[C@H](O)[C@H](O)CO)c1ccc(Cl)c(CNC2(c3cnccc3-c3ccccc3OC3CC3)CC2)c1 (single isomer, unassigned) [Compound I-315] here?
**A.** < 100 nM

**Q.** For CN(CCCCNC(=O)NCCCCN(C)S(=O)(=O)c1ccc(Cl)c(COC2(c3cnccc3-c3ccccc3OC3CC3)CC2)c1)S(=O)(=O)c1ccc(Cl)c(COC2(c3cnccc3-c3ccccc3OC3CC3)CC2)c1 [Compound I-767, N,N′-((carbonylbis(azanediyl))bis(butane-4,1-diyl))bis(4-chloro-3-((1-(4-(2-cyclopropoxyphenyl)pyridin-3-yl)cyclopropoxy)methyl)-N-methylbenzenesulfonamide)], which EC50 is on record?
**A.** 126 to 1000 nM

**Q.** With CS(=O)(=O)c1ccc(Cl)cc1CNC1(c2cnccc2-c2ccccc2OC2CC2)CC1 [Compound I-43, N-[(5-chloro-2-methanesulfonylphenyl)methyl]-1-[4-(2-cyclopropoxyphenyl)pyridin-3-yl]cyclopropan-1-amine] as the molecule, how does the EC50 read?
**A.** 126 to 1000 nM

**Q.** How did the EC50 turn out when CN(C[C@H](O)[C@@H](O)[C@H](O)[C@H](O)CO)C(=O)CCCCc1ccc(Cl)c(CNC2(c3cnccc3-c3ccccc3OC3CC3)CC2)c1 (stereo in doubt) [Compound I-234, 5-{4-chloro-3-[({1-[4-(2-cyclopropoxyphenyl)pyridin-3-yl]cyclopropyl}amino)methyl]phenyl}-N-methyl-N-[(2S,3R,4R,5R)-2,3,4,5,6-pentahydroxyhexyl]pentanamide] was run?
**A.** < 100 nM

**Q.** How did the EC50 turn out when CCC(=O)N(CCCCc1cc(Cl)c(COC2(c3cnccc3-c3ccccc3OC3CC3)CC2)cc1Cl)C[C@H](O)[C@@H](O)[C@H](O)[C@H](O)CO [Compound I-73, N-{4-[2,5-dichloro-4-({1-[4-(2-cyclopropoxyphenyl)pyridin-3-yl]cyclopropoxy}methyl)phenyl]butyl}-N-[(2S,3R,4R,5R)-2,3,4,5,6-pentahydroxyhexyl]propanamide] was run?
**A.** < 100 nM

**Q.** How did the EC50 turn out when O=C1NCCN1CCN(CCCCSc1ccc(Cl)c(COC2(c3cnccc3-c3ccccc3OC3CC3)CC2)c1)C(=O)[C@@H](O)[C@@H](O)[C@H](O)[C@@H](O)CO [Compound I-517, (2S,3S,4R,5S)-N-(4-{[4-chloro-3-({1-[4-(2-cyclopropoxyphenyl)pyridin-3-yl]cyclopropoxy}methyl)phenyl]sulfanyl}butyl)-2,3,4,5,6-pentahydroxy-N-[2-(2-oxoimidazolidin-1-yl)ethyl]hexanamide] was run?
**A.** < 100 nM

**Q.** CN(C[C@H](O)[C@@H](O)[C@H](O)[C@H](O)CO)C(=O)CCN(CCC(=O)N(C)C[C@H](O)[C@@H](O)[C@H](O)[C@H](O)CO)C(=O)CCCCc1cc(Cl)c(CNC2(c3cnccc3-c3ccccc3OC3CC3)CC2)cc1Cl [Compound I-171, 5-{2,5-dichloro-4-[({1-[4-(2-cyclopropoxyphenyl)pyridin-3-yl]cyclopropyl}amino)methyl]phenyl}-N,N-bis(2-{methyl[(2S,3R,4R,5R)-2,3,4,5,6-pentahydroxyhexyl]carbamoyl}ethyl) pentanamide] was tested. Which EC50 did it give?
**A.** 1260 to 10000 nM

**Q.** Which EC50 does the source give for CCS(=O)(=O)CCN(CCCCCSc1ccc(Cl)c(COC2(c3cnccc3-c3ccccc3OC3CC3)CC2)c1)C(=O)[C@@H](O)[C@@H](O)[C@H](O)[C@@H](O)CO [Compound I-604, (2S,3S,4R,5S)-N-(5-{[4-chloro-3-({1-[4-(2-cyclopropoxyphenyl)pyridin-3-yl]cyclopropoxy}methyl)phenyl]sulfanyl}pentyl)-N-[2-(ethanesulfonyl)ethyl]-2,3,4,5,6-pentahydroxyhexanamide] here?
**A.** < 100 nM

**Q.** How did the EC50 turn out when CN(CCSc1ccc(Cl)c(CNC2(c3cnccc3-c3ccccc3OC3CC3)CC2)c1)C(=O)[C@@H](O)[C@@H](O)[C@H](O)[C@@H](O)CO [Compound I-542, (2S,3S,4R,5S)-N-[2-({4-chloro-3-[({1-[4-(2-cyclopropoxyphenyl)pyridin-3-yl]cyclopropyl}amino)methyl]phenyl}sulfanyl)ethyl]-2,3,4,5,6-pentahydroxy-N-methylhexanamide] was run?
**A.** < 100 nM

**Q.** Which EC50 does the source give for Cc1cc(COC2(c3cnccc3-c3ccccc3OC3CC3)CC2)c(Cl)cc1CCCCNC(=O)NCC(=O)NCC(=O)NCC(=O)O [Compound I-111, 2-(2-{2-[({4-[5-chloro-4-({1-[4-(2-cyclopropoxyphenyl)pyridin-3-yl]cyclopropoxy}methyl)-2-methylphenyl]butyl}carbamoyl)amino]acetamido}acetamido)acetic acid] here?
**A.** < 100 nM

**Q.** CS(=O)(=O)CCN(CCCCCSc1ccc(Cl)c(COC2(c3cnccc3-c3ccccc3OC3CC3)CC2)c1)C(=O)[C@@H](O)[C@@H](O)[C@H](O)[C@@H](O)CO [Compound I-603, (2S,3S,4R,5S)-N-(5-{[4-chloro-3-({1-[4-(2-cyclopropoxyphenyl)pyridin-3-yl]cyclopropoxy}methyl)phenyl]sulfanyl}pentyl)-2,3,4,5,6-pentahydroxy-N-(2-methanesulfonylethyl)hexanamide] was tested. Which EC50 did it give?
**A.** < 100 nM

**Q.** How did the EC50 turn out when O=C(NCCOCCSc1ccc(Cl)c(COC2(c3cnccc3-c3ccccc3OC3CC3)CC2)c1)NC[C@H](O)[C@@H](O)[C@H](O)[C@H](O)CO [Compound I-490, 1-[2-(2-[[4-Chloro-3-([1-[4-(2-cyclopropoxyphenyl)pyridin-3-yl]cyclopropoxy]methyl)phenyl]sulfanyl]ethoxy)ethyl]-3-[(2S,3R,4R,5R)-2,3,4,5,6-pentahydroxyhexyl]urea] was run?
**A.** < 100 nM

**Q.** Which EC50 does the source give for CCN(CCCCNC(=O)N[C@@H](CO)[C@@H](O)[C@H](O)[C@H](O)CO)S(=O)(=O)c1ccc(Cl)c(CNC2(c3cnccc3-c3ccccc3OC3CC3)CC2)c1 [Compound I-696, 1-[4-(N-ethyl[4-chloro-3-[([1-[4-(2-cyclopropoxyphenyl)pyridin-3-yl]cyclopropyl]amino)methyl]benzene]sulfonamido)butyl]-3-[(2S,3R,4S,5R)-1,3,4,5,6-pentahydroxyhexan-2-yl]urea] here?
**A.** < 100 nM

**Q.** With C[C@H](CCCCNC(=O)NC[C@H](O)[C@@H](O)[C@H](O)[C@H](O)CO)c1ccc(Cl)c(CNC2(c3cnccc3-c3ccccc3OC3CC3)CC2)c1 (single isomer, unassigned) [Compound I-256] as the molecule, how does the EC50 read?
**A.** < 100 nM
